Data from ChEMBL document CHEMBL1149973, “Inhibitory stereochemistry of N-chloroacetyl-N-hydroxyleucine methyl ester for thermolysin” (Bioorg Med Chem Lett, 1996).

Assays:
Thermolysin = target: T1, Thermolysin (Bacillus thermoproteolyticus, UniProt P00800); assay: Inhibitory activity against thermolysin expressed as Ki
T1 sequence (P00800 whole entry): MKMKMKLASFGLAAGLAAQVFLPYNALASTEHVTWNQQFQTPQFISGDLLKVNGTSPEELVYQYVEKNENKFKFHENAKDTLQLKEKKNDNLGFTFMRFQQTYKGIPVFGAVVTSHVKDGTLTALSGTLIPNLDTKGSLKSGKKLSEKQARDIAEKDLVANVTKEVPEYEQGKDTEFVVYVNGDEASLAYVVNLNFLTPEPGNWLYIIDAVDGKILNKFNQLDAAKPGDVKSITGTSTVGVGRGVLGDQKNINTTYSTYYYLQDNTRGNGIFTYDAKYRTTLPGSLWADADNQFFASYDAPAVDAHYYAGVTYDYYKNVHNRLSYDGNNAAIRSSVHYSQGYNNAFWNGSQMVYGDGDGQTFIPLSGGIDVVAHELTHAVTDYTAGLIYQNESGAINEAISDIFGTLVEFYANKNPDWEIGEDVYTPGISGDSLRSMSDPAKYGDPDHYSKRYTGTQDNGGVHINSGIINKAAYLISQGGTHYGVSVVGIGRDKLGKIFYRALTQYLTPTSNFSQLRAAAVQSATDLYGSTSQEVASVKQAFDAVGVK

[1] = target: T2, Thermolysin (Bacillus thermoproteolyticus) (UniProt P00800); assay: Inhibitory activity against thermolysin expressed as kinact
T2 sequence (whole entry): T1 sequence (P00800 whole entry)

| Ki (Thermolysin) [mM] | K inact [1] [s⁻¹] | SMILES |
| --- | --- | --- |
| 4.5 | 0.009 | COC(=O)[C@H](CC(C)C)N(O)C(=O)CCl |
| 7.5 | 0.0075 | COC(=O)C(CC(C)C)N(O)C(=O)CCl (centres undefined) |
